{"source": "patent US5162361A", "about": "“Method of treating diseases associated with elevated levels of interleukin 1” (priority 1990, dated 1992)", "key": {"IL-1α [1]": {"system": "IL-1α", "test": "Western blot analysis of secreted protein (IL-1α)", "assay_type": "cell-based, rat", "settings": "LPS, FIG. 1b"}, "tumor necrosis factor": {"system": "tumor necrosis factor", "test": "Tumor necrosis factor secretion by rat macrophages", "assay_type": "cell-based", "settings": "pentamidine 10^-5 M, rat macrophages (control 82 units/ml)", "description": "It has also been observed that pentamidine (10^-5 M) blocks the secretion of tumor necrosis factor in rat macrophages (42 units/ml - pentamidine vs. 82 units/ml - control), as well as tumor necrosis factor and IL-6 in human macrophages, where at a concentration of 10^-5 M pentamidine, tumor necrosis factor and IL-6 secretion are suppressed >50%. These additional cytokines are also very influential mediators in inflammatory diseases.\nIn vitro studies were performed by taking alveolar macrophages from normal healthy rat lungs and culturing them in the presence of an imidazoline with the inducer lipopolysaccharide for 24 hours. The standard bioassay for IL-1 was performed (see above)."}, "[2]": {"system": "oxazolone induced hypersensitivity", "test": "Ear swelling response to oxazolone (delayed-type hypersensitivity)", "assay_type": "in vivo, mice", "settings": "pentamidine isethionate (heading), epicutaneous at time of oxazolone challenge, FIG. 5", "description": "All groups were sensitized with 25 μl of 2.0% oxazolone on day 0 on the shaved dorsal surface of the back. On day 5, each group was treated with 10 μl of pentamidine on each side of the right ear immediately prior to challenge with 10 μl of 0.5% oxazolone on each side of the right ear. The left ear was treated at same time with the oxazolone vehicle (4:1 acetone:olive oil) and in the same manner as the challenged ear. Ear thickness was determined before, 24 and 48 hours after challenge. The concentration of pentamidine for each group was as follows:\nGroup 1--80 μg/ear pentamidine\nGroup 2--40 μg/ear pentamidine\nGroup 3--20 μg/ear pentamidine\nGroup 4--10 μg/ear pentamidine\nGroup 5--5 μg/ear pentamidine\nGroup 6--no treatment (oxazolone positive control)"}, "alveolar macrophage": {"system": "alveolar macrophage", "test": "Alveolar macrophage viability following 24 hour exposure", "assay_type": "cell-based", "settings": "concentrations ≤10^-5 M; normal rat macrophages", "description": "Dose response studies were performed to determine the molar concentration at which pentamidine reduced viability in normal rat macrophages. […] This blockage was shown using an enzyme linked immunosorbant assay with specific antibody to IL-1β.\nAlveolar macrophage viability was assessed by incubating the cells in RPMI 1640 media with 10% fetal calf serum in the presence of pentamidine at the indicated concentrations. Twenty-four hours later the cells were analyzed for viability using ethidium bromide staining. A minimum of 10,000 cells were analyzed by flow cytometry on a FACSCAN analyzer.\nThese observations have been confirmed using microscopic analysis via trypan blue dye exclusion."}, "Ia antigen": {"system": "Ia antigen", "test": "Ia antigen expression on alveolar macrophages (flow cytometry)", "assay_type": "cell-based, rat", "description": "^a Ia antigen expression - Alveolar macrophages were diluted to 1×10^6 cells/ml in RPMI (supplemented as above). Three mls. (3×10^6 cells) were added to sterile teflon vials and treated with pentamidine or dexamethasone for 4 hours at 37° C., 5% CO2, followed by the addition of rat γ IFN at 100 U/ml. Cells were incubated for 18 hours, pelleted, counted and adjusted to 1×10^7 cells/ml in ice cold standard buffer (HBSS, 0.1% Na azide, 1% BSA).\nAliquots of cells (50 μl in quadruplicate) from the various treatment groups were plated to a 96 well round bottom plate (Linbro) and incubated for 45 minutes on ice with 50 μl aliquots of one of the following: monoclonal anti-rat OXS (Sera-lab), monoclonal anti-mouse OX6 (Sera-lab), both at 0.5 μg/5×10^5 cells, or HBSS (control). Cells were washed 3× with standard buffer and incubated for 45 minutes on ice, in the dark, with 50 μl of phycoerythrin-labeled goat anti-mouse IGGI (Fisher Biotech) at 1 μg/5×10^5 cells. Cells were washed 3× with standard buffer, resuspended in 0.4 ml of standard buffer and analyzed via flow cytometry."}, "IL-1α [3]": {"system": "IL-1α", "test": "Western blot analysis of cell associated IL-1α", "assay_type": "cell-based, rat", "settings": "10 μM pentamidine, LPS, 24 h, FIG. 3", "description": "To determine the effect of pentamidine on cellular stores of IL-1, intracellular levels of IL-1 were quantitated by incubating cells with and without 10 μM pentamidine and LPS for 24 hours. At the end of this incubation period, the cells were washed, lysed and the total cellular protein was collected for Western blot analysis. […] This is in agreement with the generally accepted existence of a precursor form of IL-1 with a molecular weight in the range of 31-33 kD (J. Giri et al., J. Immunol. 134, 343 (1985)).\nCells (4×10^6 cells) were oultured with pentamidine (10μM) or dexamethasone (1μM) in media with 10% fetal calf serum (FCS) in the presence or absence of LPS (1 μg/ml) for 24 hours. The cells were washed twice in HBSS and then scraped in homogenizing buffer (HBSS containing 0.1 mM EGTA, 1 mM pmsf, 10 μg/ml leupeptin, 1 KIU/ml aprotinin, pH 7.4). The cell suspension was left on ice for 10 minutes at which time the swollen cells were disrupted by sonication. The nuclei and undisrupted cells were pelleted by centrifugation at 800 rpm for 10 minutes and were discarded. The supernatant was centrifugated at 39,000 rpm for 1 hour at 4° C. After centrifugation, the supernatants containing cytosolic components of the cell was carefully removed and was used as the cytosol fraction. […] Molecular weight references were determined by running one lane with pre-stained molecular weight standards."}, "Female B6C3F1 mice": {"system": "Female B6C3F1 mice", "test": "Endotoxemia: hypothermia and survival after LPS", "assay_type": "in vivo", "description": "Female B6C3F1 mice weighing approximately 24 g were dosed with pentamidine (15 mg/kg.; i.v.) at both 24 hours and 1 hour prior to LPS administration (50 mg/kg; i.p.). Temperature response indices (TRI) were determined for the period between time zero and +12 hours in groups of 5 mice. […] Animals used for body temperature measurements were treated identically and on the same day as those animals for which survival was measured, although the survival of these animals is not included in the Table below. Survival data shown in Table 3 is following 24 hours of observation."}}, "note": "Entries after “also recorded” stand apart in the source; their conditions may differ."}
{"compound": "N=C(N)c1ccc(OCCCCCOc2ccc(C(=N)N)cc2)cc1", "note": "[Pentamidine, 1,5-bis(4-amidinophenoxy)pentane]", "values": [{"measurement": "Secreted IL-1 by Western blot", "setting": "IL-1α [1]", "result": "nearly complete block in the release of the intracellular IL-1; also recorded: lack of a lipopolysaccharide inducible IL-1 band"}, {"measurement": "Tumor necrosis factor secretion", "setting": "tumor necrosis factor", "result": 42, "unit": "units/ml"}, {"measurement": "Hypersensitivity response as measured by ear swelling", "setting": "[2]", "result": "statistically significant (p<0.001) reduction in the hypersensitivity response"}, {"measurement": "Loss in cell viability", "setting": "alveolar macrophage", "result": "No significant loss in cell viability"}, {"measurement": "Ia Antigen Expression (MFI)", "setting": "Ia antigen; Pentamidine 10^-5 M (control 459)", "result": 464, "unit": "MFI"}, {"measurement": "Mean concentration of Ia molecules on Ia positive cells", "setting": "Ia antigen; result in words", "result": "nor did it influence the mean concentration of Ia molecules on Ia positive cells"}, {"measurement": "Cell associated IL-1α (Western blot)", "setting": "IL-1α [3]", "result": "allows proper translation of the protein; also recorded: antiserum to murine IL-1α bound to a protein that migrated to approximately 31 kD"}, {"measurement": "Temperature response index (TRI)", "setting": "Female B6C3F1 mice; 15 mg/kg i.v. 24 h and 1 h prior to LPS 50 mg/kg i.p. (LPS alone -13.3), P < 0.01", "result": "-8.3 Δ°C"}, {"measurement": "Survival", "setting": "Female B6C3F1 mice; 15 mg/kg i.v. + LPS, 24 hours of observation (LPS alone 0/10), P < 0.01", "result": "10/10"}, {"measurement": "Mean rectal temperature at 12 hours (Tr12hr)", "setting": "Female B6C3F1 mice; 15 mg/kg i.v. + LPS, ± SE (LPS alone 25.3 ± 0.5), P < 0.01", "result": "29.0 ± 2.2", "unit": "°C"}, {"measurement": "Mean rectal temperature at time zero (Tr0)", "setting": "Female B6C3F1 mice; 15 mg/kg i.v. + LPS, ± SE (LPS alone 38.6 ± 0.4)", "result": "37.3 ± 0.4", "unit": "°C"}, {"measurement": "Temperature response index (TRI)", "setting": "Female B6C3F1 mice; 15 mg/kg i.v. at 24 h and 1 h, no LPS (vehicle -1.3)", "result": "-2.4 Δ°C"}, {"measurement": "Survival", "setting": "Female B6C3F1 mice; 15 mg/kg i.v., no LPS, 24 hours of observation (vehicle 10/10)", "result": "9/9"}, {"measurement": "Mean rectal temperature at 12 hours (Tr12hr)", "setting": "Female B6C3F1 mice; 15 mg/kg i.v., no LPS, ± SE (vehicle 36.9 ± 1.4)", "result": "35.0 ± 2.9", "unit": "°C"}, {"measurement": "Mean rectal temperature at time zero (Tr0)", "setting": "Female B6C3F1 mice; 15 mg/kg i.v., no LPS, ± SE (vehicle 38.2 ± 0.1)", "result": "37.4 ± 0.6", "unit": "°C"}]}
